Experimental data from patent US12343326B2, “Psychoactive medicines and their use for treating psychiatric and neurological conditions and disorders” (Transcend Therapeutics, Inc., priority 2021, dated 2025).

How the values were obtained:
Test in all cases: β-arrestin based GPCR screen (PathHunter / GPCRmax), agonist mode
Assay type in all cases: cell-based
Set-up in all cases: host or cells: PathHunter cell lines
168 GPCRs [1] = molecular target: 168 GPCRs (Homo sapiens, UniProt P43088); details: PTGFR
168 GPCRs (Homo sapiens, UniProt P43088), sequence (P43088 whole entry): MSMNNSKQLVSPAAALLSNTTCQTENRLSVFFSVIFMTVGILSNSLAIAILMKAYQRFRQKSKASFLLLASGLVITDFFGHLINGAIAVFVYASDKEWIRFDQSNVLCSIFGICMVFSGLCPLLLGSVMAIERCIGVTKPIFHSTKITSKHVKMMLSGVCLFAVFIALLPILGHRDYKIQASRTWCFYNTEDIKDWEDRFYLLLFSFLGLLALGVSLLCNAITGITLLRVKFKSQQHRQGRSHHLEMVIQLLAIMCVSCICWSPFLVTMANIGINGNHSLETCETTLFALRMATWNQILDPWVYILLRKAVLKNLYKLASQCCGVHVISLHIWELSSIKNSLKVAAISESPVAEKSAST
Experimental: (§1) For agonist determination, cells were incubated with sample to induce response. […] Vehicle concentration was 1%.

168 GPCRs [2] = molecular target: 168 GPCRs (Homo sapiens, UniProt Q16581); details: C3AR1, Agonist
168 GPCRs (Homo sapiens, UniProt Q16581), sequence (Q16581 whole entry): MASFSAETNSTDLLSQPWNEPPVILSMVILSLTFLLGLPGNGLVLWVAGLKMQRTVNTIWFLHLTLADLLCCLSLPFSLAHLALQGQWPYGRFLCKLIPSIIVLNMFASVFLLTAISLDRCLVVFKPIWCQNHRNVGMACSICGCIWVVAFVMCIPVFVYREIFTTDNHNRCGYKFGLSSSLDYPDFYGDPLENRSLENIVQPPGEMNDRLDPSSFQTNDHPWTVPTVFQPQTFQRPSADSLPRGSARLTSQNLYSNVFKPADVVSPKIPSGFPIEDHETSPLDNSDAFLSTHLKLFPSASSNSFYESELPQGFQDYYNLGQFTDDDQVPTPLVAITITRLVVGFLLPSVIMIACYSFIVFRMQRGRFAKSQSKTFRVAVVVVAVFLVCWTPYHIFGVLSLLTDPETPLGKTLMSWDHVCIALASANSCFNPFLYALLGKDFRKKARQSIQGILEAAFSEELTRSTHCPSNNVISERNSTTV
Experimental: as §1

168 GPCRs [3] = molecular target: 168 GPCRs (Homo sapiens, UniProt Q969V1)
168 GPCRs (Homo sapiens, UniProt Q969V1), sequence (Q969V1 whole entry): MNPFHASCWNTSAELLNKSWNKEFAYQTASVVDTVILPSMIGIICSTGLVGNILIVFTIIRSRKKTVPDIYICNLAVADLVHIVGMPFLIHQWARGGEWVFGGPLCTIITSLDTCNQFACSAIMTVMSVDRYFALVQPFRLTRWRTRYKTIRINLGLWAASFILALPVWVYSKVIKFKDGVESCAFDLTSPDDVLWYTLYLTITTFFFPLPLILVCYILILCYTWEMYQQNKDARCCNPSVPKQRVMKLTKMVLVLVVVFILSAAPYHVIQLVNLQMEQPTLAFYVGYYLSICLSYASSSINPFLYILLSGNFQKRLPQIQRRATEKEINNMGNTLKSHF
Experimental: as §1

168 GPCRs [4] = molecular target: 168 GPCRs (Homo sapiens, UniProt P49019); details: GPR109B
168 GPCRs (Homo sapiens, UniProt P49019), sequence (P49019 whole entry): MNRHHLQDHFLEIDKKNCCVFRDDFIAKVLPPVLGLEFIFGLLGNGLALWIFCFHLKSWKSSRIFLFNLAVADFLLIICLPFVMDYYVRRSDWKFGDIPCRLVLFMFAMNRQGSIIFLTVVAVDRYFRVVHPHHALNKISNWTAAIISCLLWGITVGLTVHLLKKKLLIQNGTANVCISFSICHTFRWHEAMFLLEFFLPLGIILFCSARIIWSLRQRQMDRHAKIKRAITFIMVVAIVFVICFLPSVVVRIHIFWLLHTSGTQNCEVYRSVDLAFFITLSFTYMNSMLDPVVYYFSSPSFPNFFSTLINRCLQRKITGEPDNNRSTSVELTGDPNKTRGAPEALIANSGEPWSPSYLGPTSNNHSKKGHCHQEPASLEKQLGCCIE
Experimental: as §1

168 GPCRs [5] = molecular target: 168 GPCRs (Homo sapiens, UniProt P35367)
168 GPCRs (Homo sapiens, UniProt P35367), sequence (P35367 whole entry): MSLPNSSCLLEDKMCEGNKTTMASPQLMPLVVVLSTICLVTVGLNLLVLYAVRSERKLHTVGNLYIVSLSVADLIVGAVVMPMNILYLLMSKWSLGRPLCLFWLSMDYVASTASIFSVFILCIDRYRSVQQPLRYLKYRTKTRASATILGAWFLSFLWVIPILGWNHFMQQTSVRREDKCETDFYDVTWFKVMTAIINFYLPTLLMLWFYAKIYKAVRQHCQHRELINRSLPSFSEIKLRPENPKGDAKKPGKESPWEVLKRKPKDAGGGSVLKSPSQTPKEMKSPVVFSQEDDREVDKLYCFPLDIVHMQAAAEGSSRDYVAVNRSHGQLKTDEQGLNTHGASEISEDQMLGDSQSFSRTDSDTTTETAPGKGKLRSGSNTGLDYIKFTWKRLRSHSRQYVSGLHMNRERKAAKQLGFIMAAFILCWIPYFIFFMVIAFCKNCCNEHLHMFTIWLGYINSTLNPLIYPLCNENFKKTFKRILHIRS
Experimental: as §1

168 GPCRs [6] = molecular target: 168 GPCRs (Homo sapiens, UniProt O14842)
168 GPCRs (Homo sapiens, UniProt O14842), sequence (O14842 whole entry): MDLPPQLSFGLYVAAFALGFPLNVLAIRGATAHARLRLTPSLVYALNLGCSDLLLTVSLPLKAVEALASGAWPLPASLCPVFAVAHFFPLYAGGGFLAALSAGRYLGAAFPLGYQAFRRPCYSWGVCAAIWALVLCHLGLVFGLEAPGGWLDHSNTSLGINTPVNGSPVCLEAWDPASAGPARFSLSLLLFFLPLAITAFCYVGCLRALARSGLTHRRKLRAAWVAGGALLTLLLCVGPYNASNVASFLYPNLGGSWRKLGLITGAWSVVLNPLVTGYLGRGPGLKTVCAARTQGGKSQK
Experimental: as §1

168 GPCRs [7] = molecular target: 168 GPCRs (Homo sapiens, UniProt P22888); details: LHCGR
168 GPCRs (Homo sapiens, UniProt P22888), sequence (P22888 27-699): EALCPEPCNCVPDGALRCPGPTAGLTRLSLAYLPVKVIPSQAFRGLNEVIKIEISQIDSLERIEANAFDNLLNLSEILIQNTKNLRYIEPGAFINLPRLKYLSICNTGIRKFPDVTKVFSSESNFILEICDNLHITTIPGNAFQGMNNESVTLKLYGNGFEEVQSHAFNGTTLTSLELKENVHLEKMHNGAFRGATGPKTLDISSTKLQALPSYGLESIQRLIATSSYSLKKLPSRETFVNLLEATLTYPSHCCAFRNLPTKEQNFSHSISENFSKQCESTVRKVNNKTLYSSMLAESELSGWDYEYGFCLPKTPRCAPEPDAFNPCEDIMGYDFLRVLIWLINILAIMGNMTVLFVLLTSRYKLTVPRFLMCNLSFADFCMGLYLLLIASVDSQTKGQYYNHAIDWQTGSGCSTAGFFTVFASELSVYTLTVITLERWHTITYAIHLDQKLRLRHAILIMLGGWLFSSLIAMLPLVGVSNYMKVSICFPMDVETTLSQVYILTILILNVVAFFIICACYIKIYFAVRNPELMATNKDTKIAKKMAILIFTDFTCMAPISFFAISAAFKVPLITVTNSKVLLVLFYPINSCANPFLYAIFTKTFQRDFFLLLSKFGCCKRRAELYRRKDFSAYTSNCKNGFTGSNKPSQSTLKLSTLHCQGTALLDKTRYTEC
Experimental: as §1

168 GPCRs [8] = molecular target: T1, 168 GPCRs (Homo sapiens, UniProt P08173); details: CHRM4, Agonist
T1 sequence (P08173 1-479): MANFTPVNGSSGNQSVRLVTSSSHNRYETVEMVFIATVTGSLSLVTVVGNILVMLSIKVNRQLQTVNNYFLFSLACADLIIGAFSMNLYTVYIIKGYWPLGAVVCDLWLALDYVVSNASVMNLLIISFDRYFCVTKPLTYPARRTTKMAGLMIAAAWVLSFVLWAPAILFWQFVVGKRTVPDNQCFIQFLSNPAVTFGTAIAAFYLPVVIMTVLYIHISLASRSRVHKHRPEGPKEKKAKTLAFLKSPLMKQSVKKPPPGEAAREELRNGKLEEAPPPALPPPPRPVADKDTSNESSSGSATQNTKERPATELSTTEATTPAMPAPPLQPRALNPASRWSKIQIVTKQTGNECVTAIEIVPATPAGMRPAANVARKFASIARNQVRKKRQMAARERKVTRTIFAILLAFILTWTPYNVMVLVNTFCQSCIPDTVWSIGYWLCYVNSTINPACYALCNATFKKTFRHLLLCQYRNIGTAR
Experimental: as §1

168 GPCRs [9] = molecular target: 168 GPCRs (Homo sapiens, UniProt P32246); details: CCR1, Agonist
Experimental: as §1

168 GPCRs [10] = molecular target: 168 GPCRs (Homo sapiens, UniProt Q99500)
Experimental: as §1

168 GPCRs [11] = molecular target: 168 GPCRs (Homo sapiens, UniProt Q9P296); details: C5L2, Agonist
168 GPCRs (Homo sapiens, UniProt Q9P296), sequence (Q9P296 whole entry): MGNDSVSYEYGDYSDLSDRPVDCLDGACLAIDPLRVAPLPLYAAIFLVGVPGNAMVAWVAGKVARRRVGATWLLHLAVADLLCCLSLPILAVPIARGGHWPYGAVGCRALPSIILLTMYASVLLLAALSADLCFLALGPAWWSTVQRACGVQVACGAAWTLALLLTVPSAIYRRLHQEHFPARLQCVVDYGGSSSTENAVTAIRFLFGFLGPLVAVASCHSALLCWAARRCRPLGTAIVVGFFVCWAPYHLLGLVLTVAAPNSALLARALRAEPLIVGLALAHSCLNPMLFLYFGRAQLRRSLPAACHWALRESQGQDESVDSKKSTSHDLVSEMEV
Experimental: as §1

168 GPCRs [12] = molecular target: 168 GPCRs (Homo sapiens, UniProt P48146)
168 GPCRs (Homo sapiens, UniProt P48146), sequence (P48146 whole entry): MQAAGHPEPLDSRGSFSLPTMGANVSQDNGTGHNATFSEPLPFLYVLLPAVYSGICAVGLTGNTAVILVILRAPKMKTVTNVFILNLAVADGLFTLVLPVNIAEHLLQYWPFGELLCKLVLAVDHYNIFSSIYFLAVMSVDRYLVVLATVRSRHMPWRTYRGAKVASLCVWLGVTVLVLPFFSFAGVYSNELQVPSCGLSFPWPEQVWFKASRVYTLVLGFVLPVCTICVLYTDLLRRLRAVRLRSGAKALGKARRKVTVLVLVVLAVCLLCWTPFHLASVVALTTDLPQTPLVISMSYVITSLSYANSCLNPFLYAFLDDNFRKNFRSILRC
Experimental: as §1

168 GPCRs [13] = molecular target: 168 GPCRs (Homo sapiens, UniProt P21453)
168 GPCRs (Homo sapiens, UniProt P21453), sequence (P21453 whole entry): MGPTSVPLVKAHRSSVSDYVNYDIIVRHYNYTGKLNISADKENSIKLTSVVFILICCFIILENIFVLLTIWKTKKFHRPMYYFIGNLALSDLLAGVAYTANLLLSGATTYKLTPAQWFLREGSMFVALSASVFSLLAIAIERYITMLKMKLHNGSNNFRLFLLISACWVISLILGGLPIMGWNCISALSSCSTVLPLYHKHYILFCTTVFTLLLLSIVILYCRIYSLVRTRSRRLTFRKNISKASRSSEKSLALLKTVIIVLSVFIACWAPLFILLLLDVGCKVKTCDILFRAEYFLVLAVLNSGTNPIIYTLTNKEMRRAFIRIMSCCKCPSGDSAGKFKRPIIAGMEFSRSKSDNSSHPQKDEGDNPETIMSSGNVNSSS
Experimental: as §1

168 GPCRs [14] = molecular target: 168 GPCRs (Homo sapiens, UniProt P25024)
168 GPCRs (Homo sapiens, UniProt P25024), sequence (P25024 whole entry): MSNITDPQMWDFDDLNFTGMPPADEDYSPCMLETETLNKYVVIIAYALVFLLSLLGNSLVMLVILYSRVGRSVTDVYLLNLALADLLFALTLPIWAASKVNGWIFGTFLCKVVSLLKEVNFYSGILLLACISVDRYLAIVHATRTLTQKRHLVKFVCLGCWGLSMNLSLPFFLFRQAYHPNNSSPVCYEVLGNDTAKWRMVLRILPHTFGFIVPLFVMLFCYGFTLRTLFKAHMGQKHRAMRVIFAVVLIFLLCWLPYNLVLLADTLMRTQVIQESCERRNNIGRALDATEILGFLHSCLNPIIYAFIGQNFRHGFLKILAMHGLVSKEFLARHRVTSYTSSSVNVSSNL
Experimental: as §1

168 GPCRs [15] = molecular target: 168 GPCRs (Homo sapiens, UniProt P32241)
168 GPCRs (Homo sapiens, UniProt P32241), sequence (P32241 31-457): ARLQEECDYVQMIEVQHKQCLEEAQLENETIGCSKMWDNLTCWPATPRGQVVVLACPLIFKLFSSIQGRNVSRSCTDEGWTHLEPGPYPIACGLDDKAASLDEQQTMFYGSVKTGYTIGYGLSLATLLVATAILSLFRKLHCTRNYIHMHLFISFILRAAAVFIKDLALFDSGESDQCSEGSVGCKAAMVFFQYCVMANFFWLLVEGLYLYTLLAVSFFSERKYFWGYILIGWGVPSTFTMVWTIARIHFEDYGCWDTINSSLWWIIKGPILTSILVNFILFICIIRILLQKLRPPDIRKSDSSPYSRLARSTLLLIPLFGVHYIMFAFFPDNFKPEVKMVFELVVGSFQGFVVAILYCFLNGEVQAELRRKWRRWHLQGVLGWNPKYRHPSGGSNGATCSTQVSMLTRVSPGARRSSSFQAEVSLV
Experimental: as §1

168 GPCRs [16] = molecular target: T2, 168 GPCRs (Homo sapiens, UniProt P30939); details: HTR1F
T2 sequence (P30939 1-366): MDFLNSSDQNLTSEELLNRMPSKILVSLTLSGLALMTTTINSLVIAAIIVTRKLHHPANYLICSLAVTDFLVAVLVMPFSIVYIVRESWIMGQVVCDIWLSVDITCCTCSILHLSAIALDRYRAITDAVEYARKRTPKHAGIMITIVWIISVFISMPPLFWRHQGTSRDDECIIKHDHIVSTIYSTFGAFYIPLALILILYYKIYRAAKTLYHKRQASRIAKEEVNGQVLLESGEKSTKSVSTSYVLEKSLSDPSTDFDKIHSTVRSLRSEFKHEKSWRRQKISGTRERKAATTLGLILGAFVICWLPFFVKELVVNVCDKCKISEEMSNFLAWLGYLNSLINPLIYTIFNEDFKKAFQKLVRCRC
Experimental: as §1

168 GPCRs [17] = molecular target: 168 GPCRs (Homo sapiens, UniProt O95977)
Experimental: as §1

## CNC(C)C(=O)c1ccc2c(c1)OCO2 (stereo not shown) [methylone, 3,4-methylenedioxy-N-methylcathinone]
168 GPCRs [1]; Agonist mode, 10 uM
  activity at 10 µM: -0.2%
168 GPCRs [1]; Agonist, 1 uM
  activity at 1 µM: 0.3%
168 GPCRs [2]; 1 uM
  activity at 1 µM: -0.1%
168 GPCRs [2]; 10 uM
  activity at 10 µM: 0%
168 GPCRs [3]; MCHR2, Agonist mode, 10 uM
  activity at 10 µM: -0.7%
168 GPCRs [3]; MCHR2, Agonist, 1 uM
  activity at 1 µM: -1.5%
168 GPCRs [4]; Agonist mode, 10 uM
  activity at 10 µM: 0.5%
168 GPCRs [4]; Agonist, 1 uM
  activity at 1 µM: 1%
168 GPCRs [5]; HRH1, Agonist mode, 10 uM
  activity at 10 µM: 2.5%
168 GPCRs [5]; HRH1, Agonist, 1 uM
  activity at 1 µM: 3%
168 GPCRs [6]; FFAR1, Agonist mode, 10 uM
  activity at 10 µM: 4.5%
168 GPCRs [6]; FFAR1, Agonist, 1 uM
  activity at 1 µM: 1.7%
168 GPCRs [7]; Agonist mode, 10 uM
  activity at 10 µM: 0.4%
168 GPCRs [7]; Agonist, 1 uM
  activity at 1 µM: 0.4%
168 GPCRs [8]; 1 uM
  activity at 1 µM: -5.8%
168 GPCRs [8]; 10 uM
  activity at 10 µM: -6.2%
168 GPCRs [9]; 1 uM
  activity at 1 µM: -2.6%
168 GPCRs [9]; 10 uM
  activity at 10 µM: 3.6%
168 GPCRs [10]; EDG3, Agonist mode, 10 uM
  activity at 10 µM: -8.6%
168 GPCRs [10]; EDG3, Agonist, 1 uM
  activity at 1 µM: -9.4%
168 GPCRs [11]; 1 uM
  activity at 1 µM: 8.4%
168 GPCRs [11]; 10 uM
  activity at 10 µM: 12.9%
168 GPCRs [12]; NPBWR2, Agonist mode, 10 uM
  activity at 10 µM: 1.35%
168 GPCRs [12]; NPBWR2, Agonist, 1 uM
  activity at 1 µM: -0.3%
168 GPCRs [13]; EDG1, Agonist mode, 10 uM
  activity at 10 µM: 0.4%
168 GPCRs [13]; EDG1, Agonist, 1 uM
  activity at 1 µM: 0.1%
168 GPCRs [14]; CXCR1, Agonist mode, 10 uM
  activity at 10 µM: 0.1%
168 GPCRs [14]; CXCR1, Agonist, 1 uM
  activity at 1 µM: -0.5%
168 GPCRs [15]; VIPR1, Agonist mode, 10 uM
  activity at 10 µM: 0.6%
168 GPCRs [15]; VIPR1, Agonist, 1 uM
  activity at 1 µM: 0.3%
168 GPCRs [16]; Agonist mode, 10 uM
  activity at 10 µM: -3%
168 GPCRs [16]; Agonist, 1 uM
  activity at 1 µM: -4.4%
168 GPCRs [17]; EDG6, Agonist mode, 10 uM
  activity at 10 µM: 0.3%
168 GPCRs [17]; EDG6, Agonist, 1 uM
  activity at 1 µM: -1.7%
